The test system of assay [1] is ATXN3 transcripts containing exon 4. The assay is described as follows: ATXN3 Quantitative Splicing Assay (qPCR, E4E5 primers/probe). The class given is cell-based. The conditions noted are these: Homo sapiens, SK-N-MC cells, compounds for 24 h. In short, it runs like this:
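SK-N-MC human neuroblastoma cells treated 24 h with compound from 30 μM to 0.6 nM, 24 h after plating. Lysate cDNA was run in TaqMan qPCR, with primers/probe E4E5 detecting exon 4-containing ATXN3 transcripts and E8E9 measuring total ATXN3.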
On the technique in general: In qPCR the cycle at which signal appears reflects the starting amount.

Another assay concerns ATXN3-HiBiT protein. Put plainly: ATXN3 Total Protein Assay (Kelly-ATXN3-HiBiT luminescence). It is filed as cell-based. To be noted: Kelly-ATXN3-HiBiT cells, 48 h after addition of compound. In short, it runs like this:
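Kelly cells with homozygous C-terminal HiBiT knock-in on endogenous ATXN3, 2000 per well, dosed 24 h after seeding. HiBiT lytic luminescence read 48 h after compound; sister plate read with CellTiter-Glo for viability; fold change vs DMSO.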

The next assay has as its system total ATXN3 protein. The assay is described as follows: ATXN3 Total Protein Assay (Mesoscale Discovery, SK-N-MC cells). The class given is cell-based, Human. The conditions noted are these: incubation for 48 hours, MSD assay. In short, it runs like this: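 Human SK-N-MC neuroblastoma cells treated with compound at 30 μM to 0.6 nM for 48 h, then lysed with protease inhibitors. Total ATXN3 quantified by MSD sandwich immunoassay (mouse capture, rabbit detect antibodies, anti-rabbit MSD-ST secondary) against recombinant ATXN3 standards.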

pEC50, pIC50: −log10 of the molar value.

`C[C@H](F)[C@H](N)Cc1oc2c(NCc3ccccc3)cc(Cl)nc2c1Cl` [Compound 110, 2-[(2R,3S)-2-amino-3-fluorobutyl]-7-benzylamino-3,5-dichloro-1-oxa-4-azaindene]: the pIC50 (in assay [1]; in the assay with total ATXN3 protein) was 6.30 to 7.00 each time. For the same compound, the negative logarithm of the EC50 (pEC50) (usually the negative decadic logarithm of the EC50, by convention in mol/L) with ATXN3-HiBiT protein is 6.30 to 7.00.

As for `C#Cc1c(C[C@@H](N)COC)oc2c(NCc3cccs3)cc(Cl)nc12` [Compound 61, 2-[(R)-2-amino-3-methoxypropyl]-5-chloro-3-ethynyl-7-thenylamino-1-oxa-4-azaindene], the negative logarithm of the IC50 (pIC50) (in assay [1]; in the assay with total ATXN3 protein) was 7.00 to 11.00 throughout. In the assay with ATXN3-HiBiT protein, this compound showed a negative logarithm of the EC50 (pEC50) of 7.00 to 11.00.

For `COC[C@H](N)Cc1oc2c(NCc3ccncc3)cc(Cl)nc2c1Br` [Compound 48, (R)-2-(2-amino-3-methoxypropyl)-3-bromo-5-chloro-N-(pyridin-4-ylmethyl)furo[3,2-b]pyridin-7-amine], the negative logarithm of the IC50 (pIC50) (in assay [1]; in the assay with total ATXN3 protein) was 6.30 to 7.00 each time. Besides, the pEC50 with ATXN3-HiBiT protein is 6.30 to 7.00.

For the compound `C#Cc1c(C[C@@H](N)CC(F)(F)F)oc2c(NCc3ccco3)cc(Cl)nc12` [Compound 120, 2-[(R)-2-amino-4,4,4-trifluorobutyl]-5-chloro-3-ethynyl-7-(furfurylamino)-1-oxa-4-azaindene], the pIC50 (in assay [1]; in the assay on total ATXN3 protein) was 6.30 to 7.00 throughout. This compound gave a negative-log EC50 (pEC50) in the assay on ATXN3-HiBiT protein of 5.30 to 6.30.

As to `C[C@H](O)Cc1oc2c(NCc3cccs3)cc(Cl)nc2c1Br` [Compound 213, (S)-1-(3-bromo-5-chloro-7-thenylamino-1-oxa-4-aza-2-indenyl)-2-propanol], the pIC50 (in assay [1]; in the assay on total ATXN3 protein) was 5.30 to 6.30 in each case. Besides, in the assay on ATXN3-HiBiT protein, the pEC50 was 5.30 to 6.30.

For the compound `N[C@@H](CO)Cc1oc2c(NCc3cccs3)cc(Cl)nc2c1Br` [Compound 20, (R)-2-amino-3-(3-bromo-5-chloro-7-thenylamino-1-oxa-4-aza-2-indenyl)-1-propanol], the pIC50 (in assay [1]; with total ATXN3 protein) was 7.00 to 11.00 throughout. This compound also gave a pEC50 with ATXN3-HiBiT protein of 7.00 to 11.00.

As for `Cc1cc(NCc2cccs2)c2oc(C[C@@H](N)CO)c(Br)c2n1` [Compound 59, (R)-2-amino-3-(3-bromo-5-methyl-7-thenylamino-1-oxa-4-aza-2-indenyl)-1-propanol], the pIC50 (in assay [1]; in the assay on total ATXN3 protein) was 6.30 to 7.00 each time. In the assay with ATXN3-HiBiT protein, this compound had a pEC50 of 7.00 to 11.00.

Consider `C[C@H](F)[C@H](N)Cc1oc2c(NCc3cccs3)cc(Cl)nc2c1-c1ncco1` [Compound 312, 2-[(2R,3S)-2-amino-3-fluorobutyl]-5-chloro-3-(1,3-oxazol-2-yl)-7-thenylamino-1-oxa-4-azaindene], for which the pIC50 (in assay [1]; with total ATXN3 protein) was 6.30 to 7.00 throughout. This compound also had a negative-log EC50 (pEC50) in the assay with ATXN3-HiBiT protein of 7.00 to 11.00.

On to `[2H]C([2H])(Nc1cc(Cl)nc2c(Br)c(C[C@@H](N)CCOC(F)F)oc12)c1cccs1` [Compound 222, 2-[(S)-2-amino-4-difluoromethoxybutyl]-3-bromo-5-chloro-7-{[(2-thienyl)(^2H2)methyl]amino}-1-oxa-4-azaindene], for which the negative logarithm of the IC50 (pIC50) – broadly, −log10 of the IC50, conventionally taken in molar units – was 6.30 to 7.00 in assay [1] and 7.00 to 11.00 in the assay with total ATXN3 protein. Besides, the negative logarithm of the EC50 (pEC50) in the assay with ATXN3-HiBiT protein was 7.00 to 11.00.

Turning to `C[C@H](N)Cc1oc2c(NCc3nccs3)cc(Cl)nc2c1Br` [Compound 45, 2-[(S)-2-aminopropyl]-3-bromo-5-chloro-7-{[(1,3-thiazol-2-yl)methyl]amino}-1-oxa-4-azaindene], the pIC50 (in assay [1]; in the assay on total ATXN3 protein) was 6.30 to 7.00 each time. This compound also had a negative logarithm of the EC50 (pEC50) with ATXN3-HiBiT protein of 7.00 to 11.00.

On to `C[C@H](F)[C@H](N)Cc1oc2c(NCc3cccs3)cc(Cl)nc2c1-c1ccn(C)n1` [Compound 333, 2-[(2R,3S)-2-amino-3-fluorobutyl]-5-chloro-3-(1-methyl-3-pyrazolyl)-7-thenylamino-1-oxa-4-azaindene], for which the negative-log IC50 (pIC50) (in assay [1]; in the assay on total ATXN3 protein) was 5.30 to 6.30 in each case. In addition, in the assay with ATXN3-HiBiT protein, the negative-log EC50 (pEC50) was 5.00 to 5.30.

As to `N[C@@H](Cc1oc2c(NCc3cccs3)cc(Cl)nc2c1Br)[C@H]1CCOC1` (single isomer, unassigned) [Compound 215], the negative logarithm of the IC50 (pIC50) (in assay [1]; with total ATXN3 protein) was 4.40 to 5.00 each time. Moreover, in the assay on ATXN3-HiBiT protein, the pEC50 was 4.40 to 5.00.

Take `N[C@H](Cc1oc2c(NCc3cccs3)cc(Cl)nc2c1Br)C1CC(F)(F)C1` [Compound 133, 2-[(R)-2-amino-2-(3,3-difluorocyclobutyl)ethyl]-3-bromo-5-chloro-7-thenylamino-1-oxa-4-azaindene]: the negative logarithm of the IC50 (pIC50) (in assay [1]; in the assay on total ATXN3 protein) was 5.30 to 6.30 throughout. In addition, the negative logarithm of the EC50 (pEC50) with ATXN3-HiBiT protein was 5.30 to 6.30.

Consider `C#Cc1cc(NCc2cccs2)c2oc(C[C@H](C)N)c(C)c2n1` [Compound 40, 2-[(S)-2-aminopropyl]-5-ethynyl-3-methyl-7-thenylamino-1-oxa-4-azaindene], for which the pIC50 (in assay [1]; with total ATXN3 protein) was 5.30 to 6.30 each time. Also, the negative logarithm of the EC50 (pEC50) in the assay on ATXN3-HiBiT protein is 5.30 to 6.30.

Consider `C[C@H](F)[C@H](N)Cc1oc2c(NCc3cccs3)cc(Cl)nc2c1C#N` [Compound 237, 2-[(2R,3S)-2-amino-3-fluorobutyl]-5-chloro-7-[(thiophen-2-ylmethyl)amino]furo[3,2-b]pyridine-3-carbonitrile], for which the negative-log IC50 (pIC50) was 4.40 to 5.00 in assay [1] and 5.00 to 5.30 with total ATXN3 protein. In addition, in the assay with ATXN3-HiBiT protein, the pEC50 is 4.40 to 5.00.

For `CC#C[C@H](N)Cc1oc2c(NCc3cccs3)cc(Cl)nc2c1Br` [Compound 132, 2-[(R)-2-amino-3-pentynyl]-3-bromo-5-chloro-7-thenylamino-1-oxa-4-azaindene], the negative-log IC50 (pIC50) is 5.30 to 6.30 in assay [1] and 6.30 to 7.00 with total ATXN3 protein. This compound showed a negative logarithm of the EC50 (pEC50) in the assay with ATXN3-HiBiT protein of 5.30 to 6.30.

As for `CC#Cc1cc(NCc2cccs2)c2oc(C[C@H](C)N)c(Br)c2n1` [Compound 160, 2-[(S)-2-aminopropyl]-3-bromo-5-(1-propynyl)-7-thenylamino-1-oxa-4-azaindene], the figures for the negative logarithm of the IC50 (pIC50) (in assay [1]; with total ATXN3 protein) were 5.30 to 6.30 and 6.30 to 7.00, respectively. Moreover, in the assay on ATXN3-HiBiT protein, the pEC50 is 6.30 to 7.00.

As for `C[C@H](F)[C@H](N)Cc1oc2c(NCc3ccc(F)s3)cc(Cl)nc2c1Cl` [Compound 108, 2-[(2R,3S)-2-amino-3-fluorobutyl]-3,5-dichloro-7-{[(5-fluoro-2-thienyl)methyl]amino}-1-oxa-4-azaindene], the negative-log IC50 (pIC50) (in assay [1]; with total ATXN3 protein) was 6.30 to 7.00 each time. The compound further had a pEC50 in the assay on ATXN3-HiBiT protein of 6.30 to 7.00.

On to `N[C@H](Cc1oc2c(NCc3ccco3)cc(Cl)nc2c1Cl)CC(F)(F)F` [Compound 27, 2-[(R)-2-amino-4,4,4-trifluorobutyl]-3,5-dichloro-7-(furfurylamino)-1-oxa-4-azaindene], for which the pIC50 (in assay [1]; in the assay with total ATXN3 protein) was 5.30 to 6.30 throughout. Moreover, the negative-log EC50 (pEC50) in the assay with ATXN3-HiBiT protein was 5.30 to 6.30.

On to `[2H][C@](N)(COC)Cc1oc2c(NCc3cccs3)cc(Cl)nc2c1Br` [Compound 285, 2-[(R)-2-amino-3-methoxy(2-^2H)propyl]-3-bromo-5-chloro-7-thenylamino-1-oxa-4-azaindene], for which the pIC50 in assay [1] is 6.30 to 7.00; in the assay on total ATXN3 protein it was 7.00 to 11.00. For the same compound, the pEC50 in the assay on ATXN3-HiBiT protein is 7.00 to 11.00.

Turning to `Cc1c(C[C@@H](N)[C@H](C)F)oc2c(NCc3ccc(F)s3)cc(Cl)nc12` [Compound 105, 2-[(2R,3S)-2-amino-3-fluorobutyl]-5-chloro-7-{[(5-fluoro-2-thienyl)methyl]amino}-3-methyl-1-oxa-4-azaindene], the negative-log IC50 (pIC50) is 6.30 to 7.00 in assay [1] and 5.30 to 6.30 in the assay on total ATXN3 protein. The same compound gave a pEC50 with ATXN3-HiBiT protein of 5.30 to 6.30.

With `C[C@H](F)[C@H](N)Cc1oc2c(NCc3cccs3)cc(Cl)nc2c1-c1ccoc1` [Compound 332, 2-[(2R,3S)-2-amino-3-fluorobutyl]-5-chloro-3-(3-furyl)-7-thenylamino-1-oxa-4-azaindene], the pIC50 (in assay [1]; in the assay with total ATXN3 protein) was 5.30 to 6.30 throughout. For the same compound, the pEC50 in the assay on ATXN3-HiBiT protein was 5.30 to 6.30.

For the compound `C[C@H](N)Cc1oc2c(NCc3cccs3)cc(Cl)nc2c1-c1nccs1` [Compound 257, 2-[(S)-2-aminopropyl]-5-chloro-7-thenylamino-3-(1,3-thiazol-2-yl)-1-oxa-4-azaindene], the pIC50 (in assay [1]; with total ATXN3 protein) was 4.40 to 5.00 each time. This compound had a negative logarithm of the EC50 (pEC50) in the assay on ATXN3-HiBiT protein of 4.40 to 5.00.

`C[C@@H](F)[C@H](N)Cc1oc2c(NCc3sccc3F)cc(Cl)nc2c1Br` [Compound 97, 2-[(2R,3R)-2-amino-3-fluorobutyl]-3-bromo-5-chloro-7-{[(3-fluoro-2-thienyl)methyl]amino}-1-oxa-4-azaindene]: the pIC50 (in assay [1]; in the assay with total ATXN3 protein) was 5.30 to 6.30 each time. Also, the pEC50 with ATXN3-HiBiT protein was 5.30 to 6.30.

The values above are taken from patent US20260001889A1, “COMPOSITIONS USEFUL FOR MODULATING SPLICING” (Skyhawk Therapeutics, Inc., priority 2022, published 2026).
